Data reported in ChEMBL document CHEMBL3046790, “Antioxidant potential and antimicrobial screening of some novel imidazole derivatives: greenway efficient one pot synthesis” (Med Chem Res, 2012).
Values after ≈ are worked out from the molar mass of the structure shown.

Columns and labels:
Type in all cases: functional
Aspergillus flavus = assay: Antimicrobial activity against Aspergillus flavus after 24 hr
Aspergillus niger = assay: Antimicrobial activity against Aspergillus niger after 24 hr
Candida = assay: Antimicrobial activity against Candida-6 after 24 hr; details: Candida, 6, 24 h
[1] = Antioxidant activity assessed as superoxide scavenging activity at 10 uM after 15 min by PMS/NADH-NBT assay
[2] = Antioxidant activity assessed as superoxide scavenging activity at 100 uM after 15 min by PMS/NADH-NBT assay
[3] = Antioxidant activity assessed as hydroxyl radical scavenging activity at 80 uM after 60 min using thiobarbutaric acid by spectrophotometry
[4] = Antioxidant activity assessed as superoxide scavenging activity after 15 min by PMS/NADH-NBT assay
[5] = Antioxidant activity assessed as superoxide scavenging activity at 40 uM after 15 min by PMS/NADH-NBT assay
[6] = Antioxidant activity assessed as superoxide scavenging activity at 60 uM after 15 min by PMS/NADH-NBT assay
[7] = Antioxidant activity assessed as superoxide scavenging activity at 80 uM after 15 min by PMS/NADH-NBT assay
[8] = Antioxidant activity assessed as DPPH scavenging activity at 20 uM after 30 min by spectrophotometry
[9] = Antioxidant activity assessed as DPPH scavenging activity at 10 uM after 30 min by spectrophotometry
[10] = Antioxidant activity assessed as hydroxyl radical scavenging activity at 60 uM after 60 min using thiobarbutaric acid by spectrophotometry
[11] = Antioxidant activity assessed as hydroxyl radical scavenging activity at 100 uM after 60 min using thiobarbutaric acid by spectrophotometry
[12] = Antioxidant activity assessed as hydroxyl radical scavenging activity at 40 uM after 60 min using thiobarbutaric acid by spectrophotometry
[13] = Antioxidant activity assessed as hydroxyl radical scavenging activity after 60 min using thiobarbutaric acid by spectrophotometry
[14] = Antioxidant activity assessed as DPPH scavenging activity at 40 uM after 30 min by spectrophotometry
[15] = Antioxidant activity assessed as DPPH scavenging activity after 30 min by spectrophotometry
[16] = Antioxidant activity assessed as DPPH scavenging activity at 30 uM after 30 min by spectrophotometry
[17] = Antioxidant activity assessed as superoxide scavenging activity at 20 uM after 15 min by PMS/NADH-NBT assay
[18] = Antioxidant activity assessed as hydroxyl radical scavenging activity at 10 uM after 60 min using thiobarbutaric acid by spectrophotometry
[19] = Antioxidant activity assessed as DPPH scavenging activity at 50 uM after 30 min by spectrophotometry
[20] = Antioxidant activity assessed as hydroxyl radical scavenging activity at 20 uM after 60 min using thiobarbutaric acid by spectrophotometry
Escherichia coli = assay: Antimicrobial activity against Escherichia coli after 24 hr
Klebsiella pneumoniae = assay: Antimicrobial activity against Klebsiella pneumoniae after 24 hr
Staphylococcus aureus = assay: Antimicrobial activity against Staphylococcus aureus after 24 hr

SMILES | MIC (Aspergillus flavus) | MIC (Aspergillus niger) | MIC (Candida) | IC50 [4] | IC50 [13] | IC50 [15] | Activity [1] | Activity [2] | Activity [3] | Activity [5] | Activity [6] | Activity [7] | Activity [8] | Activity [9] | Activity [10] | Activity [11] | Activity [12] | Activity [14] | Activity [16] | Activity [17] | other results
C[C@@H]1[C@H](O)[C@@H](C)/C=C/C=C/C=C/C=C/C=C/C=C/C=C/[C@H](O[C@@H]2O[C@H](C)[C@@H](O)[C@H](N)[C@@H]2O)C[C@@H]2O[C@](O)(C[C@@H](O)C[C@@H](O)[C@H](O)CC[C@@H](O)C[C@@H](O)CC(=O)O[C@H]1C)C[C@H](O)[C@H]2C(=O)O [AMPHOTERICIN B] | 25 mg/L (≈ 27.1 µM) | 50 mg/L (≈ 54.1 µM) | 12.5 mg/L (≈ 13.5 µM) | – | – | – | – | – | – | – | – | – | – | – | – | – | – | – | – | – | –
O=C1O[C@H]([C@@H](O)CO)C(O)=C1O [ASCORBIC ACID] | – | – | – | 2.8 mg/L (≈ 15.9 µM) | 2.72 mg/L (≈ 15.4 µM) | 3.1 mg/L (≈ 17.6 µM) | 32.6% | 73.5% | 70.4% | 55.5% | 62.1% | 66.5% | 34.5% | 26.5% | 65.3% | 78.5% | 48.6% | 66.5% | 48.8% | 48.8% | Activity [18]: 24.3%; Activity [19]: 75.4%; Activity [20]: 41.3%
COc1cc(OC)cc(-n2c(-c3ccc(F)cc3)nc(C)c2C)c1 | 50 mg/L (≈ 153 µM) | 50 mg/L (≈ 153 µM) | 50 mg/L (≈ 153 µM) | 4.16 mg/L (≈ 12.7 µM) | 4.18 mg/L (≈ 12.8 µM) | 3.98 mg/L (≈ 12.2 µM) | 21.9% | 55.2% | 55.2% | 55.2% | 60% | 58.1% | 19.2% | 12.1% | 57.5% | 54% | 47.1% | 57.6% | 42.4% | 24.8% | Activity [4]: Dose-dependent effect; MIC (Escherichia coli): 50 mg/L (≈ 153 µM); Activity [13]: Dose-dependent effect; MIC (Klebsiella pneumoniae): 100 mg/L (≈ 306 µM); Activity [15]: Dose-dependent effect; Activity [18]: 35.6%; MIC (Staphylococcus aureus): 50 mg/L (≈ 153 µM); Activity [19]: 56.6%; Activity [20]: 40.2%
O=C(O)c1cn(C2CC2)c2cc(N3CCNCC3)c(F)cc2c1=O [CIPROFLOXACIN] | – | – | – | – | – | – | – | – | – | – | – | – | – | – | – | – | – | – | – | – | MIC (Klebsiella pneumoniae): 100 mg/L (≈ 302 µM)
COc1ccc(-n2c(-c3ccccc3)nc(C)c2C)cc1 | 25 mg/L (≈ 89.8 µM) | 100 mg/L (≈ 359 µM) | 25 mg/L (≈ 89.8 µM) | 3.74 mg/L (≈ 13.4 µM) | 4.5 mg/L (≈ 16.2 µM) | 3.64 mg/L (≈ 13.1 µM) | 10.5% | 59.6% | 50.6% | 63.1% | 64.9% | 68.4% | 28.3% | 14.1% | 48.3% | 52.9% | 43.7% | 56.6% | 59.6% | 28.1% | Activity [4]: Dose-dependent effect; MIC (Escherichia coli): 25 mg/L (≈ 89.8 µM); Activity [13]: Dose-dependent effect; MIC (Klebsiella pneumoniae): 100 mg/L (≈ 359 µM); Activity [15]: Dose-dependent effect; Activity [18]: 35.6%; MIC (Staphylococcus aureus): 50 mg/L (≈ 180 µM); Activity [19]: 55.5%; Activity [20]: 40.2%

Now from value to compound, other results behind:

MIC (Aspergillus flavus) | MIC (Aspergillus niger) | MIC (Candida) | IC50 [4] | IC50 [13] | IC50 [15] | SMILES | Activity [1] | Activity [2] | Activity [3] | Activity [5] | Activity [6] | Activity [7] | Activity [8] | Activity [9] | Activity [10] | Activity [11] | Activity [12] | Activity [14] | Activity [16] | Activity [17] | other results
25 mg/L (≈ 84.4 µM) | 25 mg/L (≈ 84.4 µM) | 25 mg/L (≈ 84.4 µM) | 5.2 mg/L (≈ 17.5 µM) | 3.84 mg/L (≈ 13 µM) | 3.46 mg/L (≈ 11.7 µM) | COc1ccc(-n2c(-c3ccc(F)cc3)nc(C)c2C)cc1 | 38.1% | 41% | 50.6% | 39% | 41.9% | 45.7% | 20.2% | 11.1% | 48.3% | 52.9% | 43.7% | 64.6% | 46.5% | 39% | Activity [4]: Dose-dependent effect; MIC (Escherichia coli): 25 mg/L (≈ 84.4 µM); Activity [13]: Dose-dependent effect; MIC (Klebsiella pneumoniae): 50 mg/L (≈ 169 µM); Activity [15]: Dose-dependent effect; Activity [18]: 39.1%; MIC (Staphylococcus aureus): 50 mg/L (≈ 169 µM); Activity [19]: 68.7%; Activity [20]: 48.3%
25 mg/L (≈ 81.1 µM) | 25 mg/L (≈ 81.1 µM) | 25 mg/L (≈ 81.1 µM) | 4.16 mg/L (≈ 13.5 µM) | 4.14 mg/L (≈ 13.4 µM) | 3.8 mg/L (≈ 12.3 µM) | COc1cc(OC)cc(-n2c(-c3ccccc3)nc(C)c2C)c1 | 13.3% | 61% | 55.2% | 49.5% | 53.3% | 59% | 20.2% | 17.2% | 54% | 58.6% | 47.1% | 57.6% | 52.5% | 32.4% | Activity [4]: Dose-dependent effect; MIC (Escherichia coli): 50 mg/L (≈ 162 µM); Activity [13]: Dose-dependent effect; MIC (Klebsiella pneumoniae): 100 mg/L (≈ 324 µM); Activity [15]: Dose-dependent effect; Activity [18]: 34.5%; MIC (Staphylococcus aureus): 25 mg/L (≈ 81.1 µM); Activity [19]: 55.5%; Activity [20]: 39.1%
